The record followed here is PMC11063903, “Engineering a human P2X2 receptor with altered ligand selectivity in yeast” (The Journal of Biological Chemistry, 2024).

What all share (assay type): cell-based
One assay deals with T1, P2X2 F301W (Homo sapiens, UniProt Q9UBL9, F301W).
T1 construct: expressed in transfected cells; host or cells: S. cerevisiae BY4741 background
T1 sequence (Q9UBL9 1-471 F301W): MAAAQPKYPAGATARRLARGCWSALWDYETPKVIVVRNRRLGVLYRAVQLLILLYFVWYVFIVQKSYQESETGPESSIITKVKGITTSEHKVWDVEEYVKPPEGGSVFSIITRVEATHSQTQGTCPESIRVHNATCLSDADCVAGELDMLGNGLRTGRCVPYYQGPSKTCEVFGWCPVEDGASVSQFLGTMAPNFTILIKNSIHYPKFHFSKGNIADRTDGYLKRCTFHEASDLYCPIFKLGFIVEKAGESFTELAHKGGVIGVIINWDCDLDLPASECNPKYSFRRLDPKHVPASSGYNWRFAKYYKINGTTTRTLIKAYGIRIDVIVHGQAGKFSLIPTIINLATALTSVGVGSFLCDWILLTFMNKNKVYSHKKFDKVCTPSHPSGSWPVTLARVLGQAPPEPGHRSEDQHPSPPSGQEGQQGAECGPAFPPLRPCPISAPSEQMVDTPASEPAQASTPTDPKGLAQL
The assay can be described thus: Fast GCaMP-mScarletI assay in yeast, P2X2 F301W. The settings on record: for Bottom, best fit value / Hillslope, best fit value / Top, best fit value: four-parameter logistic fit of ΔF/ΔT; for Bottom, best fit value / Hillslope, best fit value / Top, best fit value / EC50: n = 3; for EC50: four-parameter logistic fit, unit inferred, unit M, read-out: EC50, best fit value. As for the experimental part:
(§1) Figure 4 Unnatural-ligand gating in LBD libraries.A, WT P2X2 was tested with 1 mM ATP, 500 μM AMP-PNP, and compared to ATP with the broken receptor (K81C K83C) control with 1 mM ATP in the fast GCaMP-mScarletI assay (n = 3). […] B, heat map summarizing AMP-PNP signaling (ΔF/ΔT, fast GCaMP-mScarletI assay) in the site-saturation libraries (n = 2–3). All values are normalized to WT P2X2 with saturating amounts of AMP-PNP (500 μM) and therefore represent low signal (ΔF/ΔT) compared to the ATP ligand. C, F301W, F303Y, and A304W were combinatorially combined and tested against the WT, K81C K83C broken P2X2, and the single mutant clones with both ATP (1 mM, black) and AMP-PNP (500 μM, pink). […] Values here represent signal onset and are not normalized to a positive control (n = 2–5). D–K, dose response of each P2X variant with both ATP (black) and AMP-PNP (pink) in the fast GCaMP-mScarletI assay (n = 3). Statistics were performed via one-way ANOVA with Dunnett’s multiple comparisons with to the “broken” K81C K83C negative control. ∗ represents a p value ≤0.05, ∗∗ is p ≤ 0.01, and ∗∗∗ is p ≤ 0.001.
(§2) Given that the yeast-based screen seemed to recapitulate important structural and functional features of human ion channel function, we hypothesized that it might be possible to engineer new P2X2 functionalities in yeast, including new ligand specificity. […] We screened our 133-member library in the presence of 500 μM AMP-PNP (Fig. S7). While the AMP-PNP signal was uniformly low, three substitutions (F301W, F303Y, and A304W) increased signaling 2.5 to 2.8 times relative to the negative control receptor (Figs. 4B, and S7, D, F, and G). To gain a more complete view of the properties of these mutants, dose–response curves were generated with ATP and AMP-PNP (Fig. 4, D–G, and Table S2).
(§3) GCaMP assays were performed as follows. P2X2 GCaMP strains were designed with a bi-cistronic reporter, in which the GCaMP protein was followed by a 2A peptide and a mScarletI reporter ([53]). The co-translated mScarletI was designed to act as a control for plasmid loss, GCaMP breakage via nonsense mutation, and contamination. […] P2X2-GCaMP strains were cultured and induced as previously described. Samples were induced for 24 h to allow for the accumulation of the mature GCaMP protein. Cells were washed three times in 0.1 M MES/Tris buffer and resuspended with MES/Tris with supplemental calcium. Cells were loaded onto a black, clear bottom microplate and imaged on a FlexStation3 plate reader. Samples were imaged in “flex” mode. Samples were imaged for 48 s at an interval of 1.6 s. Fluorescence was measured with an excitation at 485 nm, and emission 525 nm. At the 21 s mark, 100 μl ligand solution was transferred to the cells. For strains with mScarlet, fluorescence was read with excitation 570 nm/emission 610 nm. Slopes were calculated from the last 6 points of measurement and were normalized to the positive control samples. Any replicate in which the mScarlet value was measured to be over 2 standard deviations less than the mean for that set was discarded from further analysis.
(§4) For multiple comparisons in the site-saturation screening data, One-way ANOVA with Dunnett’s multiple comparisons test was performed where every sample was compared to the “broken” negative control. Significance was plotted where ∗ represents a p value ≤0.05, ∗∗ is p ≤0.01, and ∗∗∗ is p ≤0.001. Dose–response curves were fit with nonlinear regression software using a four-parameter logistic curve. All statistics were calculated and plotted in Graphpad Prism software.

The target in assay [1] is T2, P2X2 A304W (Homo sapiens, UniProt Q9UBL9, A304W).
T2 construct: expressed in transfected cells; host or cells: S. cerevisiae BY4741 background
T2 sequence (Q9UBL9 1-471 A304W): T1 sequence (Q9UBL9 1-471 F301W) with W301F, A304W
Briefly: Fast GCaMP-mScarletI assay in yeast, P2X2 A304W. The settings on record: for Bottom, best fit value / Hillslope, best fit value / Top, best fit value: four-parameter logistic fit of ΔF/ΔT; for Bottom, best fit value / Hillslope, best fit value / Top, best fit value / EC50: n = 3; for EC50: four-parameter logistic fit, unit inferred, unit M, read-out: EC50, best fit value. As for the experimental part:
as §1, §2, §3, §4

Assay [2] addresses T2, P2X2 A304W. The assay can be described thus: 15-min kinetic GCaMP-mScarletI assay in yeast, P2X2 A304W. The settings on record: 1 mM ATP or 5 mM AMP-PNP, 15-min bath incubation, n = 3. As for the experimental part:
To more fully characterize the selected and engineered P2X2 variants, kinetic assays were performed over a longer period (15 min) that provided a more complete view of receptor gating (Fig. 5, A–H).
Figure 5 Kinetic analysis of P2X variants.A–H, P2X2 variants in GCaMP-mScarletI yeast were injected with 1 mM ATP (black) or 5 mM AMP-PNP (pink) and fluorescence was monitored over a 15-min time course of bath incubation. Error bars represent standard deviation of the mean (n = 3).
The A304W mutation therefore appears to either favor the open conformation of the receptor and/or to have slow rates of pore closure.

Numbering of substitutions follows the chain as printed.

Usually EC50 stands for the concentration needed to bring the measured effect to its halfway point. For `Nc1ncnc2c1ncn2[C@@H]1O[C@H](COP(=O)(O)OP(=O)(O)NP(=O)(O)O)[C@@H](O)[C@H]1O` [AMP-PNP], the “activity compared to the wild-type” value on P2X2 F301W (AMP-PNP dose-response, Fig. 4D-G, Table S2) worked out at 5.28 fold. At P2X2 F301W, the “Bottom, best fit value” was 0.4523; the “Hillslope, best fit value” came to 2.135; the “Top, best fit value” is 5.973; the EC50 was 214 µM. In addition, the “activity compared to the wild-type” value on P2X2 A304W [1] (AMP-PNP dose-response, high ligand concentrations) amounted to 55.87 fold. Further, on P2X2 A304W [1], the “Bottom, best fit value” is reported as -0.1131; the “Hillslope, best fit value” is 1.702; the “Top, best fit value” was found to be 50.72; the 50% effective concentration (EC50) turned out to be 621 µM. At P2X2 A304W [2], the “signal decay over the time course” value is given as “a small amount of signal decay”.
On to `Nc1ncnc2c1ncn2[C@@H]1O[C@H](COP(=O)(O)OP(=O)(O)OP(=O)(O)O)[C@@H](O)[C@H]1O` [ATP], for which, at P2X2 F301W, the “Bottom, best fit value” is reported as -0.0044; the “Hillslope, best fit value” is given as 0.94; the “Top, best fit value” turned out to be 37.70; the EC50 came out at 5.04 µM. Further, at P2X2 A304W [1], the “Bottom, best fit value” is 0.89; the “Hillslope, best fit value” worked out at 2.41; the “Top, best fit value” came out at 67.64; the EC50 was found to be 16.6 µM. The “signal decay over the time course” value at P2X2 A304W [2] is listed as “no sign of decay”.
